# Data published in patent US11213514B2, “Alpha-1-adrenergic receptor agonist therapy” (The Regents of the University of California, priority 2016, dated 2022).
# Experiments:
# wild type (WT) mice = assay: Doxorubicin cardiotoxicity in wild type mice (survival, anatomy, conscious echocardiography, fibrosis)
# Source text: FIGS. 2A-2B. […] On Day 7 the mice underwent echocardiography prior to sacrifice. FIG. 2A. Fractional shortening, a measure of contractile function, with representative M-mode echocardiogram images. […] FIG. 2B. Heart sections from some of these mice (i.e. wild type mice) stained with Masson Trichrome. Fibrosis (weighted average collagen content) was quantified using Aperio ImageScope software.
# On Day 7, mice underwent echocardiography and were sacrificed by cervical dislocation after an overdose of isoflurane.
# Conscious transthoracic echocardiography was performed on loosely restrained mice in the McAllister Heart Institute Animal Models Core using a VisualSonics Vevo 2100 ultrasound system (VisualSonics, Inc., Toronto, Ontario, Canada). Two-dimensional and M-mode echocardiography were performed in the parasternal long-axis view at the level of the papillary muscle. Left ventricular systolic function was assessed by fractional shortening (% FS=[(LVEDD−LVESD)/LVEDD]×100). Reported values represent the average of at least five cardiac cycles per mouse. Sonographers and investigators were blinded to mouse treatment condition during image acquisition and analysis.
# Mice were heparinized and the heart was perfused with 10 mL PBS followed by 20 mL of 4% PFA/PBS through a 23 G butterfly needle, excised and placed in 4% PFA/PBS for 24 hours then transferred to 70% EtOH. Hearts were stained using standard methods in the UNC Histology Research Core. Fibrosis was analyzed in 3 Masson Trichrome (MT)-stained sections of 4 or 5 hearts from each treatment group. Slides were scanned using an Aperio ScanScope (Aperio Technologies, Vista, Calif.) and analyzed in Aperio ImageScope software. The Algorithm Positive Pixel Count v9 was used to measure collagen staining by MT using hue value (0.66) and hue width (0.1) The N positive/N total value was used to determine a weighted average collagen content (%) for each section.
# PGC1α = assay: qRT-PCR for PGC1α in mouse heart tissue; assay type: in vivo
# Protocol: (§1) FIGS. 3A-3E. […] FIG. 3A. […] FIG. 3B. […] FIG. 3C. […] FIG. 3E.
# (§2) (FIG. 3B). […] (FIG. 3C).
# Total RNA was isolated from cells and tissue (QiagenRNeasy Plus mini kit #74134) and analyzed using a NanoDrop (ThermoScientific). For qRT-PCR, one […]g of RNA was reverse transcribed using High Capacity cDNA Reverse Transcription Kit (Life Technologies #4368814). Two step qRT-PCR reactions contained 2% of the cDNA product. All reactions were performed in triplicate in a Roche 480 Light Cycler. Relative quantitation of PCR products used the ΔΔCt method relative to two validated reference genes (Tbp and Polr2a). Similar efficiencies were confirmed for all primers. All probes and primers were from Roche.
# [1] = tested on: TBARS (lipid peroxidation) in mouse myocardium; assay: Thiobarbituric acid reactive substances (TBARS) in mouse heart tissue; assay type: in vivo
# Source text: as §1, §2
# [2] = tested on: neonatal rat ventricular myocytes (NRVMs); assay: Mitochondrial membrane potential (JC-1) in NRVMs; assay type: cell-based
# Protocol: FIG. 6A-6C. […] FIG. 6A. Mitochondrial membrane potential was assessed using JC-1 and fluorescent intensity was quantified using a plate reader. Red indicates intact mitochondrial membrane potential; green indicates compromised mitochondrial membrane potential (relative). Lysates were blotted for selected regulators of apoptosis and mitochondrial cell death effectors. Representative Western blots and summary findings from 3 independent experiments with at least 2 wells per condition in each experiment are shown.
# JC-1 exists as a green fluorescent monomer at low mitochondrial membrane potential and a red fluorescent aggregate at high mitochondrial membrane potential. […] (FIGS. 6A-6C).
# Mitochondrial membrane potential: Mitochondrial membrane potential in NRVMs was determined by 5, 5′, 6, 6′-tetrachloro-1, 1′, 3, 3′-tetraethylbenzimidazolylcarbocyanine iodide (JC-1) reduction. Cells were stained with JC-1 (Mitoprobe, Cayman Chemical Company) according to the manufacturer's protocol. In brief, serum-starved NRVMs were treated with DOX or vehicle in the presence or absence of dabuzalgron. […] Cells were washed once with medium then analyzed by plate reader (CLARIOstar, BMG LABTECH, Germany). JC-1 green fluorescence was excited at 488 nm and emission was detected using a 530±40 nm filter. JC-1 red fluorescence was excited at 488 nm and emission was detected using a 613±20 nm filter.
# [3] = tested on: cytochrome c, caspases, PARP; assay: Immunoblot for cytochrome c and downstream effectors of apoptosis in NRVMs; assay type: cell-based, rat; settings: NRVM lysates, 4 hours
# Protocol: FIG. 6A-6C. […] FIG. 6A. Mitochondrial membrane potential was assessed using JC-1 and fluorescent intensity was quantified using a plate reader. Red indicates intact mitochondrial membrane potential; green indicates compromised mitochondrial membrane potential (relative). Lysates were blotted for selected regulators of apoptosis and mitochondrial cell death effectors.
# Homogenized tissue or cells were lysed in RIPA buffer with protease and phosphatase inhibitor (as above) and the lysate was passed through a Qiashredder. Equal protein abundance was assured with the Bradford assay (tissue lysates) or equal cell number (NRVMs). Samples were run for 2 hours at 140 v on ice on a Novex NuPAGE 4-12% Bis-Tris gel then transferred to a PVDF membrane at 90V for 1 hour on ice. Membranes were blocked in 5% milk at room temperature for 1 hour. We used Cell Signaling kit #9100 (pERK Thr202/Tyr204 1:250, ERK 1:1000, anti-rabbit HRP 1:1000). BID: (Santa Cruz, SC-11423); Cytochrome C: (Santa Cruz, SC-13560); AIF: (Santa Cruz, SC-13116); Caspase 8: (MBL international corporation, JM-3020-100); PARP: (Cell Signaling, #9532); Caspase 3: (Cell Signaling, #9665); Cleaved caspase 3: (Cell Signaling, #9664)
# [4] = hearts of mice treated with DOX
# [5] = WT mice, dabuzalgron after DOX, Day 7
# [6] = wild type mice, Dox 20 mg/kg i.p. + dabuzalgron 20 μg/kg/d gavage 7 days
# [7] = wild type mice, Dox + 1240 20 μg/kg/d, Day 7 echocardiography
compound,measurement,setting,value
"COc1cccc2c1C(=O)c1c(O)c3c(c(O)c1C2=O)C[C@@](O)(C(=O)CO)C[C@@H]3O[C@H]1C[C@H](N)[C@H](O)[C@H](C)O1 [DOX, doxorubicin]","burden of fibrosis, Masson Trichrome","wild type (WT) mice; mouse, in vivo",increased significantly
same,"contractile function, conscious echocardiography","wild type (WT) mice; mouse, in vivo",decrease
same,7-day survival,"wild type (WT) mice; wild type mice, Dox 20 mg/kg i.p. + vehicle gavage 7 days",78%
same,7-day survival,"wild type (WT) mice; wild type mice, Dox 20 mg/kg i.p. + vehicle gavage 7 days, listed as Dox",78%
same,PGC1α abundance,"PGC1α; mouse heart in vivo, DOX",decreased
same,TBARS abundance,[1]; [4],more abundant
same,mitochondrial membrane potential (JC-1),[2]; DOX for 4 hours,profound loss
same,cleavage of caspases and PARP,[3]; doxorubicin 2 μM,caused cleavage
same,cytochrome c release,[3]; doxorubicin 2 μM,increased
"Cc1c(OCC2=NCCN2)ccc(Cl)c1NS(C)(=O)=O [dabuzalgron, N-[6-chloro-3-(4,5-dihydro-1H-imidazol-2-ylmethoxy)-2-methylphenyl]methanesulfonamide]",effect of dabuzalgron on DOX-induced decrease in survival,"wild type (WT) mice; DOX 20 mg/kg i.p., dabuzalgron 10 μg/kg twice daily 7 days",not fully mitigated
same,effect on DOX-induced decrease in contractile function,"wild type (WT) mice; WT mice, Day 7, dabuzalgron after DOX",prevented
same,fractional shortening after DOX,wild type (WT) mice; [5],preserved
same,left ventricular end systolic volume after DOX,wild type (WT) mice; [5],preserved
same,effect on DOX-induced increase in fibrosis,"wild type (WT) mice; WT mouse heart sections, dabuzalgron after DOX",mitigated
same,echocardiographic parameters,"wild type (WT) mice; mouse, in vivo",no effect
same,7-day survival,wild type (WT) mice; [6],86%
same,Body Wt Day 7,wild type (WT) mice; [6],24.3 ± 0.6 g
same,HW/BW,wild type (WT) mice; [6],0.41 ± 0.02 %
same,HW/TL,wild type (WT) mice; [6],5.5 ± 0.3 mg/mm
same,Heart Wt,wild type (WT) mice; [6],97 ± 5 mg
same,Lung Wt/TL,wild type (WT) mice; [6],7.7 ± 0.4 mg/mm
same,FS (Fractional Shortening),wild type (WT) mice; [7],53 ± 1 %
same,HR (Heart Rate),wild type (WT) mice; [7],667 ± 10 beats per minute
same,LVs vol (Left Ventricular systolic volume),wild type (WT) mice; [7],5 µL
same,"PWd (Posterior Wall, diastole)",wild type (WT) mice; [7],0.9 mm
same,PGC1α abundance,PGC1α; [4],increased
same,PGC1α abundance,PGC1α; hearts of mice treated with vehicle control,increased
same,TBARS content,[1]; co-administration of dabuzalgron with DOX,normalized
same,effect on DOX-induced loss of mitochondrial membrane potential,[2]; DOX for 4 hours with dabuzalgron 10 μM,partially rescued
same,effect on DOX-induced cytochrome c release and cleavage of caspases and PARP,[3]; doxorubicin 2 μM with Dabuzalgron 10 μM,abrogated
